Source: patent US8815845B2, “1,4-benzodiazepine-2,5-diones and related compounds with therapeutic properties” (The Regents of the University of Michigan, priority 2009, dated 2014)

Experiments:
[1] = target: ROCK-II (h, amino acids 11-552) (Homo sapiens (Human), UniProt O75116); test: ROCK-II (h) inhibition assay; assay type: biochemical; conditions: read-out: ROCK2 IC50
Experimental: ROCK-II (h) Inhibition Assay:
In a final reaction volume of 25 μL, ROCK-II (h, amino acids 11-552) (5-10 mU) was incubated with 50 mM Tris pH 7.5, 0.1 mM EGTA, 30 [μM […], 10 mM magnesium acetate and γ-^32P-ATP] (specific activity approx. 500 cpm/pmol, concentration as required). The reaction was initiated by the addition of the MgATP mix. After incubation for 40 minutes at room temperature, the reaction was stopped by the addition of 5 μL of a 3% phosphoric acid solution. 10 μL of the reaction was then spotted onto a P30 filter-mat and washed three times for 5 minutes in 75 mM phosphoric acid and once in methanol prior to drying and scintillation counting.

[2] = target: ROCK-I (h, amino acids 17-535) (Homo sapiens (Human), UniProt Q13464); test: ROCK-I (h) inhibition assay; assay type: biochemical; conditions: read-out: ROCK1 IC50
Sequence of ROCK-I (h, amino acids 17-535) (Q13464 17-535): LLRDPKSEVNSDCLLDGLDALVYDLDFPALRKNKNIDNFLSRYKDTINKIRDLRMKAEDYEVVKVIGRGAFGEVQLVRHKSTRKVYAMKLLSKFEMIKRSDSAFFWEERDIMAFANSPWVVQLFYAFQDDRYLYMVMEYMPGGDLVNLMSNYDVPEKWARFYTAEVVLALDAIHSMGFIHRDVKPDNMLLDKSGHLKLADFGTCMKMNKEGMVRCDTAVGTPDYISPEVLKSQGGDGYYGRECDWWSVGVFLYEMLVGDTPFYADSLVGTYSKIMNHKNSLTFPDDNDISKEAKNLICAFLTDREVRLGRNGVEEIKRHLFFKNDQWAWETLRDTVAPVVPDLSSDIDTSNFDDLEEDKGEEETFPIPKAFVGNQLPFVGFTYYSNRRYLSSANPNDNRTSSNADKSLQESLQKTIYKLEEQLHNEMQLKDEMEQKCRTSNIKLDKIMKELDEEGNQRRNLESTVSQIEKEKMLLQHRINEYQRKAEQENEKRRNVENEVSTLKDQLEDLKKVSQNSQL
Experimental: ROCK-I (h) Inhibition Assay:
In a final reaction volume of 25 μL, ROCK-I (h, amino acids 17-535) (5-10 mU) was incubated with 8 mM MOPS pH 7.0, 0.2 mM EDTA, 30 μM […], 10 mM magnesium acetate and [γ-^32P-ATP] (specific activity approx. 500 cpm/pmol, concentration as required). The reaction was initiated by the addition of the MgATP mix. After incubation for 40 minutes at room temperature, the reaction was stopped by the addition of 5 μL of a 3% phosphoric acid solution. 10 μL of the reaction was then spotted onto a P30 filtermat and washed three times for 5 minutes in 75 mM phosphoric acid and once in methanol prior to drying and scintillation counting.

Sequence of ROCK-II (h, amino acids 11-552) (O75116 11-552): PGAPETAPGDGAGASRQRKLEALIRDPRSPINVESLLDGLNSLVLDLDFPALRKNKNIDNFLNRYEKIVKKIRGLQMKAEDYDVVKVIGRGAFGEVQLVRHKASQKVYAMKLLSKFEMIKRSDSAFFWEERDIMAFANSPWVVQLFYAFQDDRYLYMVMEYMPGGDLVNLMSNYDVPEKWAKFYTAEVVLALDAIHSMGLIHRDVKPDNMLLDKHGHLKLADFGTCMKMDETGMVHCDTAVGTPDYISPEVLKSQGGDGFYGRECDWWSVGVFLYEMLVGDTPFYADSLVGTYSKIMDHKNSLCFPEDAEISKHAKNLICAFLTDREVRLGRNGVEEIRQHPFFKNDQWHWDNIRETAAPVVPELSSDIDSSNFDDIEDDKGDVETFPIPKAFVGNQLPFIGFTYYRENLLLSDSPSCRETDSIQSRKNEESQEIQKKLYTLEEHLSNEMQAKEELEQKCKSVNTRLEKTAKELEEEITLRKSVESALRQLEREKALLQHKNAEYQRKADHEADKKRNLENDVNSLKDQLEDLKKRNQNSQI

| IC50 [1] | IC50 [2] | Structure (SMILES) |
| --- | --- | --- |
| 200 nM | 2800 nM | COc1ccc2c(c1)C(=O)N[C@@H](Cc1ccc(-c3ccnc4[nH]ccc34)cc1)C(=O)N2C [Compound 5, (S)-3-(4-(1H-pyrrolo[2,3-b]pyridin-4-yl)benzyl)-7-methoxy-1-methyl-3,4-dihydro-1H-benzo[e][1,4]diazepine-2,5-dione] |
| 250 nM | 5100 nM | CN1C(=O)[C@H](Cc2ccc(-c3ccnc4[nH]ccc34)cc2)NC(=O)c2cc(Cl)ccc21 [Compound 4, (S)-3-(4-(1H-pyrrolo[2,3-b]pyridin-4-yl)benzyl)-7-chloro-1-methyl-3,4-dihydro-1H-benzo[e][1,4]diazepine-2,5-dione] |

Second part, the compound before the results:

| Structure (SMILES) | IC50 [1] | IC50 [2] |
| --- | --- | --- |
| CN1C(=O)[C@@H](Cc2ccc(-c3ccnc(N)c3)cc2)NC(=O)c2cc(Cl)ccc21 [Compound 2, (R)-3-(4-(2-aminopyridin-4-yl)benzyl)-7-chloro-1-methyl-3,4-dihydro-1H-benzo[e][1,4]diazepine-2,5-dione] | 7100 nM | > 10000 nM |
| COc1ccc2c(c1)C(=O)N[C@@H](Cc1ccc(-c3ccnc(N)c3)cc1)C(=O)N2C [Compound 3, (S)-3-(4-(2-aminopyridin-4-yl)benzyl)-7-methoxy-1-methyl-3,4-dihydro-1H-benzo[e][1,4]diazepine-2,5-dione] | 2400 nM | > 10000 nM |
| CN1C(=O)[C@@H](Cc2ccc(-c3cn[nH]c3)cc2)NC(=O)c2cc(Cl)ccc21 [Compound 1, (R)-3-(4-(1H-pyrazol-4-yl)benzyl)-7-chloro-1-methyl-3,4-dihydro-1H-benzo[e][1,4]diazepine-2,5-dione] | 1000 nM | > 30000 nM |
